≈ marks a conversion by molar mass, not a printed value. Where “and” joins values, the source holds several entries; their conditions need not be identical. Equal values may be shown once. Read-outs that look alike come from different tables or passages of the source.
What was measured:
[1] = Kinetic solubility (HPLC-UV); assay type: physicochemical; conditions: aqueous buffer, kinetic from dmso stock, PBS pH 2.0
Procedure: The concentration of the test compound (x) in PBS samples was calculated from the peak area (y) in its UV chromatogram by extrapolation from the three-point calibration line, using the equation y = ax + b; where a = slope and b = intercept.
Summary of the assay method for the determination kinetic solubility:
PBS was prepared and its pH adjusted to 2.0 and 7.4
primary stock solutions of the test compounds and controls (reserpine and hydrocortisone) in DMSO at 10 mM were prepared
Samples were briefly vortex mixed
samples were incubated for 2 hours while mixing in an incubator with orbital shaker at 200 rpm
samples were centrifuged at 3500 rpm for 15 minutes at 22 °C
the supernatant of the standards were transferred from the clear 96-well plate into an opaque, round bottom 96-well analysis plate, while the aqueous samples were filtered using a vacuum manifold through a multi-screen filter plate (MSRLN 0450, 0.4 µM), into the same opaque, round bottom 96-well plate
samples were analysed using HPLC-UV method by injecting the STDs in duplicate, and the samples in singlet.

[2] = Non-specific binding to the micro-partition device (ultrafiltration); assay type: in vitro ADME; conditions: PBS pH 7.4
Procedure: PPB (plasma protein binding), the extent to which a drug binds to protein in plasma, can affect the PK-PD properties of a drug. Thus, determining the PPB property of a drug in the early stage of drug development process is crucial and a prerequisite for lead prioritization. Initially the PPB assay was performed using an ultrafiltration method [see Additional file 3], which depends on centrifugal force to move the unbound analyte of interest through a size-selective membrane. Ultrafiltration is recommended for the determination of PPB property if the non-specific binding (NSB) of the test drug to the micro-partition device is less than 5%. If NSB > 5%, an alternative technique such as equilibrium dialysis or ultracentrifugation should be used.
Procedure for the determination of nonspecific binding by Ultrafiltration (procedure was adopted from Dow, 2002; with a slight modification).
0.01 M PBS, pH 7.4, was prepared by dissolving 4 g of NaCl, 0.1 g of KCl, 0.722 g of Na2HPO4, and 0.12 g of KH2PO4 with water to a final volume of 500 ml.
Primary stock solutions of TK900D, TK900E, and NP046 at 100 µg/ml; and secondary stock solutions at 1 µg/ml in methanol were prepared. […]
The ultrafiltrate were extracted and analysed quantitatively using the validated LC-MS/MS bioanalytical drug assay methods specified in Chapters 8 and 9.
The %NSB were calculated using the equation: […]

Caco-2 cell line = test: Caco-2 permeability, apical to basolateral drug transport assay; assay type: in vitro ADME, human; conditions: transport buffer pH 7.4, LC-MS/MS, experiment repeated with same result
Description: Permeability is the speed/velocity and extent to which a drug passes through a biological membrane obstacle in a living system, such as the gastrointestinal (GI) epithelial cells, the blood capillary wall, the target cell membrane. The Caco-2 cell line (a continuous line of heterogeneous human epithelial colorectal adenocarcinoma cells), the most widely used and recognized as a model of the intestinal barrier was used to determine the in vitro permeability of NP046 [for the methodology see Additional file 6]. The transport of each drug from the apical side to the basolateral side was done using a transport buffer that consisted of Hank’s Balanced Salt Solution (HBSS) + 10 mM HEPES + […] NaHCO3, pH 7.4 (1:100 1 M HEPES in HBSS). The drug transport assay was performed by determining the concentrations of the test compound from the basolateral chamber, using an LC-MS/MS assay. […] Therefore, the experiment was repeated and the same result was obtained. This could be due to the following reasons: IVc. Drug transport assay: The monolayer was rinsed with HBSS Test compounds (200 µl) was added into the apical chambers of the monolayers inserted in a plate containing 600 µl HBSS The plate was placed in a water bath with orbital shaker (60 rpm) for 2 hours at 37 °C Fifty micro litters of the solution were removed from the apical and basolateral wells and analysed using LC-MS method.

[3] = Lipophilicity, Log D by scaled-down shake-flask method (octanol/PBS); assay type: physicochemical; conditions: pH 7.4, read-out: Log D7.4
Procedure: Lipophilicity is a compound’s tendency to partition into a non-polar lipid matrix versus an aqueous matrix. It is an important property of a drug which has a significant influence on the drug ADME/tox properties as well as its biological activity. […].
Stock solutions of NP046 and controls in DMSO (10 mM) were prepared and an aliquot of each phase (octanol/PBS) was analysed by an HPLC-Diode array detector (DAD) method. Chromatographic separation was achieved on a Phenomenex® Kinetex C18 (50 × 2.1 mm i.d. 2.6 μm) column with a gradient elution, using mobile phase (A) 5 mM ammonium format-acetonitrile (95:5, v/v) and (B) 5 mM ammonium format-acetonitrile (5:95, v/v). The Log D values were calculated using the analyte peak areas obtained from each phase (Octanol/PBS) according to the following equation [12]: [drawing 2]

[4] = In vivo PK evaluation in mice (blood, LC-MS/MS, non-compartmental analysis); set-up: species or system male C57BL/6 mice; conditions: for concentration at 7 h: read-out: mean blood concentration at seven hours after dosing
Procedure: The in vivo PK properties of NP046 were evaluated following oral (50 and 10 mg/kg) and IV (5 mg/kg) administration of the compound in water to male C57BL/6 mice (n = 5). Blood samples were collected via tail bleeding in heparinized tubes at predetermined sampling times on ice, and were stored at -80°C until analysis. Despite the critical problem of obtaining numerous blood samples from a mouse without compromising the health/safety of the animal, blood samples at all the sampling times, i.e. 0.17, 0.5, 1, 3, 5 and 7 hours for the IV dose groups, and 0.5, 1, 3, 5 and 7 hours for the oral dose groups were collected from each mouse. The extraction volume during sample analysis was targeted at the lowest possible volume (20 μl) thereby minimizing the total volume of blood harvested from the animal.
Blood samples collected from mice following the administration of NP046 together with the calibration standards (STDs) and quality controls (QCs) of NP046 were analyzed using a validated LC-MS/MS assay (for details of the LC-MS/MS assay see Additional file 2). Concentration vs time profiles were constructed and using Summit PK software the data were processed to obtain the PK properties of NP046.
Blood samples collected from mice after the administration of NP046, together with the calibration standards (STDs) and quality controls (QCs), were analysed using a fully validated LC-MS/MS assay. NP046 concentrations were detectable for up to seven hours after oral and IV dosing. Concentration vs time profiles (Figures 3 and 4) were constructed and the data processed with Summit PK software (non-compartmental analysis) to obtain the PK parameters as presented in Table 2. The LC-MS/MS method performed very well; NP046 concentrations in the mice were detectable for up to seven hours after both 50 and 10 mg/kg oral dosing, with mean concentrations of 0.05 and 0.02 μM, respectively.

[5] = male, C57BL/6, whole blood, IV 5 mg/kg, mouse
[6] = male, C57BL/6, whole blood, oral 10 mg/kg, mouse
[7] = male, C57BL/6, whole blood, oral 50 mg/kg, mouse

SMILES: Oc1cc(CCCc2ccc(F)cc2)ccc1CN1CCCCC1 [NP046, 5-(3-(4-fluorophenyl)propyl)-2-(piperidin-1-ylmethyl)phenol]
- solubility at 2 h [1]: 185 µM (≈ 60.7 µg/mL)
- NSB (non-specific binding to the micro-partition device) [2]: > 5%
- test compound found in the basolateral chamber (apical to basolateral transport) (Caco-2 cell line): no quantifiable amount
- logD [3]: 2.6
- AUC 0 - ∞ ([4]; IV 5 mg/kg, mouse blood): 248 ± 12.6 µmol·min/L
- half-life ([4]; male, C57BL/6, whole blood, other: oral and IV (range over both), range over oral (50 and 10 mg/kg) and IV (5 mg/kg) groups, mouse, read-out: mean half-life): 3.1 to 4.4 h
- Vd [4, 5]: 16.9 ± 1.3 L/kg
- half-life ([4]; male, C57BL/6, whole blood, IV 5 mg/kg, mouse blood, mean ± S.E.M, n = 5, read-out: Apparent t 1/2 (converted)): 3.2 ± 0.35 h
- clearance ([4]; male, C57BL/6, whole blood, IV 5 mg/kg, mouse, read-out: Blood CL total): 62.2 ± 3 mL/min/kg
- concentration at 7 h [4, 5]: 140 nM
- Tmax [4, 6]: 0.8 h
- bioavailability [4, 6]: 6 ± 2.9%
- Cmax ([4]; male, C57BL/6, whole blood, oral 10 mg/kg, mouse blood): 130 ± 60 nM
- half-life ([4]; male, C57BL/6, whole blood, oral 10 mg/kg, mouse blood, mean ± S.E.M, n = 5, read-out: Apparent t 1/2 (converted)): 3.1 ± 0.46 h
- concentration at 7 h [4, 6]: 20 nM
- Tmax [4, 7]: 0.5 h
- bioavailability [4, 7]: 3.2 ± 0.47%
- Cmax ([4]; male, C57BL/6, whole blood, oral 50 mg/kg, mouse blood): 470 ± 100 nM
- half-life ([4]; male, C57BL/6, whole blood, oral 50 mg/kg, mouse blood, mean ± S.E.M, n = 5, read-out: Apparent t 1/2 (converted)): 4.4 ± 0.6 h
- concentration at 7 h [4, 7]: 50 nM
- AUC 0 - ∞ ([4]; oral 10 mg/kg, mouse blood, 10 mg/kg): 30 µmol·min/L and 30 ± 14.7 µmol·min/L
- AUC 0 - ∞ ([4]; oral 50 mg/kg, mouse blood, 50 mg/kg): 80 µmol·min/L and 80 ± 8.8 µmol·min/L
